From patent USRE50528E1, “Compounds and compositions for modulating EGFR mutant kinase activities” (Yuhan Corporation, priority 2014, dated 2025)

Legend:
EGFR mutant T790M = molecular target: T1, EGFR mutant T790M (Homo sapiens, UniProt P00533, T790M); assay: Kinase inhibition assay, EGFR mutant T790M; details: biochemical potency;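 note: truncated human EGFR mutant enzyme preincubated two hours with compound, then ATP plus ULight-PolyGT peptide for one hour, Europium-labeled antibody LANCE detection, IC50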
T1 construct: truncated human JAK3, EGFR mutants such as del E746-A750; purchased Carna Biosciences
T1 sequence (P00533 669-1210 T790M limits assumed): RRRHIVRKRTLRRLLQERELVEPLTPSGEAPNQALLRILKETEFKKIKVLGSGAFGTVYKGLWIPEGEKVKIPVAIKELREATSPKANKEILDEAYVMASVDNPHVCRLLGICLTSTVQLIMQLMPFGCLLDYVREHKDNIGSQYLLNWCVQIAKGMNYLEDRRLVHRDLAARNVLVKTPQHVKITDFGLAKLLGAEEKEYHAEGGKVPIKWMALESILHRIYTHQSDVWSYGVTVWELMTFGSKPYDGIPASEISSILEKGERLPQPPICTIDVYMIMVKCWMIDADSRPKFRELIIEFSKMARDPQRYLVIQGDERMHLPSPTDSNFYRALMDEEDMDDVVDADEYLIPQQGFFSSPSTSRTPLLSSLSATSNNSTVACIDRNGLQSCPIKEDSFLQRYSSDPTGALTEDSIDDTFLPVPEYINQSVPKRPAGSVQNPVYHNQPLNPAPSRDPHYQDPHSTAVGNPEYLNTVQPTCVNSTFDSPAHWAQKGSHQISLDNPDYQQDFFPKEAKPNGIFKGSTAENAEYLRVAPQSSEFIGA

EGFR mutant L858R = molecular target: T2, EGFR mutant L858R (Homo sapiens, UniProt P00533, L858R); assay: Kinase inhibition assay, EGFR L858R; assay type: biochemical; details: read-out: EGFR mutants L858R;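 note: truncated human EGFR L858R kinase with compound preincubation, ULight-PolyGT peptide phosphorylation read by Europium-antibody Lance detection, IC50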
T2 construct: truncated human JAK3, EGFR mutants such as del E746-A750; purchased Carna Biosciences
T2 sequence (P00533 669-1210 L858R limits assumed): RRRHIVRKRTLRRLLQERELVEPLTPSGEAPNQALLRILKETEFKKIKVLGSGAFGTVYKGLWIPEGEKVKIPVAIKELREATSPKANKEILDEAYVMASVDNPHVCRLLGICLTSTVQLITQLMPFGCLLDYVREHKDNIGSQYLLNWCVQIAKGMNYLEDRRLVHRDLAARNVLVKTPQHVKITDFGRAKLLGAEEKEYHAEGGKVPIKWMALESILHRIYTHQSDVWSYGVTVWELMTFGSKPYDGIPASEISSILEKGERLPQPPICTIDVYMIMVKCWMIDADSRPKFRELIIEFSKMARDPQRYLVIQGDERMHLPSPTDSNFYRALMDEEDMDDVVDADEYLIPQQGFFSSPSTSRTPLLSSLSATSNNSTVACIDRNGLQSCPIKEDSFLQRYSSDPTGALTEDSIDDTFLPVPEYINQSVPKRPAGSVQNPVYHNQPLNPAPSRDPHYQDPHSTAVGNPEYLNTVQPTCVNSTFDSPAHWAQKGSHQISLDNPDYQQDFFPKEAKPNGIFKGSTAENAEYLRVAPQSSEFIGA

SYK = molecular target: T3, SYK (Homo sapiens, UniProt P43405); assay: Kinase inhibition assay, SYK; assay type: biochemical; details: biochemical potency;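 note: purified full-length human SYK pre-incubated 30 min with compound, then ULight-TK peptide phosphorylation for 1 h, detected with Europium-labeled antibody in Lance buffer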
T3 construct: Purified human, full-length SYK, KDR; purchased Carna Biosciences

EGFR mutant L858R/T790M = molecular target: T4, EGFR mutant L858R/T790M (Homo sapiens, UniProt P00533, L858R/T790M); assay: Kinase inhibition assay, EGFR L858R/T790M; assay type: biochemical; details: read-out: EGFR mutants L858R/T790M;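 note: truncated human enzyme preincubated two hours with compound, then one hour with one millimolar ATP and ULight-PolyGT peptide, Europium-labeled antibody detection, IC50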
T4 construct: truncated human JAK3, EGFR mutants such as del E746-A750; purchased Carna Biosciences
T4 sequence (P00533 669-1210 T790M/L858R limits assumed): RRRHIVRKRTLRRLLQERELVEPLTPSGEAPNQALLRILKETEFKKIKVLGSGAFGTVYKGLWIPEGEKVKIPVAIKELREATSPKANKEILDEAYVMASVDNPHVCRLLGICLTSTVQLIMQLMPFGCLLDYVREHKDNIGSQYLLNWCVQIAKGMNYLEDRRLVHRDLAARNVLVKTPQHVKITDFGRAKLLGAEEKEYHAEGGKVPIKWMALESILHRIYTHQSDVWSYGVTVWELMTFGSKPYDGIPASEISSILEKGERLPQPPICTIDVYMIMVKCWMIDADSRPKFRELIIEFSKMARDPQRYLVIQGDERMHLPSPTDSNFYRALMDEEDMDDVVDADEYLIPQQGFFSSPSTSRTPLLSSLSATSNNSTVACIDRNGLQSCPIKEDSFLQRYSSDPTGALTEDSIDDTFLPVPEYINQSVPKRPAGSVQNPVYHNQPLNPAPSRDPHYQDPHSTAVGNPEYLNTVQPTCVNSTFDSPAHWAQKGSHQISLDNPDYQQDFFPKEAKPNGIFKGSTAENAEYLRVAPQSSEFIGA

[1] = molecular target: T5, EGFR mutant Del19 (E746-A750) (Homo sapiens, UniProt P00533, DEL746-750); assay: Kinase inhibition assay, EGFR del E746-A750; assay type: biochemical; details: read-out: EGFR mutants Del19 (E746-A750);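 note: truncated human EGFR mutant kinase, two-hour preincubation with compound, then one-hour reaction with ATP and ULight-PolyGT peptide, LANCE Europium-antibody phosphorylation readout, IC50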
T5 construct: truncated human JAK3, EGFR mutants such as del E746-A750; purchased Carna Biosciences
T5 sequence (P00533 with tags, fused parts or gaps DEL746-750 limits assumed): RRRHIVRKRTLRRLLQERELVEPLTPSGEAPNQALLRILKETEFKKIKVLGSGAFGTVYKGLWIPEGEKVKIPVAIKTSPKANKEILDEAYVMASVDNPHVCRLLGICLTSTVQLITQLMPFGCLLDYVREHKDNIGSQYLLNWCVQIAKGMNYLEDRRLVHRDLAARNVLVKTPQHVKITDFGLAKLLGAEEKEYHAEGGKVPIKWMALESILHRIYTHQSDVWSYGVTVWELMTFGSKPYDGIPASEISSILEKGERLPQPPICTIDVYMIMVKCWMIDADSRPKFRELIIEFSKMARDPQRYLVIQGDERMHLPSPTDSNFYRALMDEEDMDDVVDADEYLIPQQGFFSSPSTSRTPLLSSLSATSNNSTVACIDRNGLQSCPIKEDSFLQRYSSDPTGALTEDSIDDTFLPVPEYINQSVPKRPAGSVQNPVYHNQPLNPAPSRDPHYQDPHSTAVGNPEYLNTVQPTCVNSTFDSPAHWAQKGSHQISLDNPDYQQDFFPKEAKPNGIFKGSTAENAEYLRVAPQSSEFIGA

EGFR mutant Del19/T790M = molecular target: T6, EGFR mutant Del19/T790M (Homo sapiens, UniProt P00533, DEL746-750/T790M); assay: Kinase inhibition assay, EGFR del E746-A750/T790M; assay type: biochemical; details: read-out: EGFR mutants Del19/T790M
T6 construct: truncated human JAK3, EGFR mutants such as del E746-A750; purchased Carna Biosciences
T6 sequence (P00533 with tags, fused parts or gaps DEL746-750/T790M limits assumed): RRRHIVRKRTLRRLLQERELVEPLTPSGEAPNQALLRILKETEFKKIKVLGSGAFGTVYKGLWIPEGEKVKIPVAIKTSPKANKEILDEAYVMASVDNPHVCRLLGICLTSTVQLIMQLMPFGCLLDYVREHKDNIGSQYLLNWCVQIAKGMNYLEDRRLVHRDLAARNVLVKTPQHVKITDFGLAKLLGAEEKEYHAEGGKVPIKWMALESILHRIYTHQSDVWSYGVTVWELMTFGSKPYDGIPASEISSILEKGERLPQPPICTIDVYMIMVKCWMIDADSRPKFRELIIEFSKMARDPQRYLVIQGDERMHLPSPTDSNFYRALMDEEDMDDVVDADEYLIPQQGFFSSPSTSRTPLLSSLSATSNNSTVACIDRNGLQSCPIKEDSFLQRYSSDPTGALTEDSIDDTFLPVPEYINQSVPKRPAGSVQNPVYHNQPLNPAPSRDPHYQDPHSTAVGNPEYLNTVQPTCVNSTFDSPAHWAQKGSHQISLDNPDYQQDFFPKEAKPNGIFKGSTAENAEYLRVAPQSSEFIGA

IC50 (EGFR mutant T790M) [nM]	IC50 (EGFR mutant L858R) [nM]	IC50 (SYK) [nM]	IC50 (EGFR mutant L858R/T790M) [nM]	IC50 [1] [nM]	IC50 (EGFR mutant Del19/T790M) [nM]	SMILES
< 20	< 20	> 1000	< 20	< 20	< 20	C=CC(=O)Nc1cc(Nc2nccc(-n3cc(CN4CCC4)c(C)n3)n2)c(OC)cc1C1=CCN(C)CC1 [Compound 59, N-(5-(4-(4-(azetidin-1-ylmethyl)-3-methyl-1H-pyrazol-1-yl)pyrimidin-2-ylamino)-4-methoxy-2-(1-methyl-1,2,3,6-tetrahydropyridin-4-yl)phenyl)acrylamide]
20 to 200	20 to 200	> 1000	< 20	< 20	< 20	C=CC(=O)Nc1cc(Nc2ncc(F)c(-n3cc(C)c(CN4CCC4)c3)n2)c(OC)cc1N1CCOCC1 [Compound 60, N-(5-(4-(3-(azetidin-1-ylmethyl)-4-methyl-1H-pyrrol-1-yl)-5-fluoropyrimidin-2-ylamino)-4-methoxy-2-morpholinophenyl)acrylamide]
< 20	20 to 200	> 1000	< 20	< 20	< 20	C=CC(=O)Nc1cc(Nc2ncc(C)c(-n3cc(CN4CCC4)cn3)n2)c(OC)cc1C1=CCN(C)CC1 [Compound 64, N-(5-(4-(4-(azetidin-1-ylmethyl)-1H-pyrazol-1-yl)-5-methylpyrimidin-2-ylamino)-4-methoxy-2-(1-methyl-1,2,3,6-tetrahydropyridin-4-yl)phenyl)acrylamide]
20 to 200	< 20	> 1000	< 20	< 20	< 20	C=CC(=O)Nc1cc(Nc2ncc(C)c(-n3cc(CN4CCC4)c(C(C)(C)C)n3)n2)c(OC)cc1N1CCOCC1 [Compound 67, N-(5-(4-(4-(azetidin-1-ylmethyl)-3-tert-butyl-1H-pyrazol-1-yl)-5-methylpyrimidin-2-ylamino)-4-methoxy-2-morpholinophenyl)acrylamide]
< 20	< 20	201 to 1000	< 20	< 20	< 20	C=CC(=O)Nc1cc(Nc2ncc(Cl)c(-n3cc(CN(C)C)cn3)n2)c(OC)cc1N1CCOCC1 [Compound 77, N-(5-(5-chloro-4-(4-((dimethylamino)methyl)-1H-pyrazol-1-yl)pyrimidin-2-ylamino)-4-methoxy-2-morpholinophenyl)acrylamide]
< 20	< 20	> 1000	< 20	< 20	< 20	C=CC(=O)Nc1cc(Nc2nccc(-n3cc(CN(C)C)c(-c4ccc(C)cc4)n3)n2)c(OC)cc1N1CCOCC1 [Compound 80, N-(5-(4-(4-((dimethylamino)methyl)-3-p-tolyl-1H-pyrazol-1-yl)pyrimidin-2-ylamino)-4-methoxy-2-morpholinophenyl)acrylamide]
201 to 1000	20 to 200	> 1000	20 to 200	20 to 200	20 to 200	C=CC(=O)Nc1cc(Nc2nccc(-n3cc(CN4CCC4)c(-c4ccc(F)cc4)n3)n2)c(OC)cc1N1CCOCC1 [Compound 81, N-(5-(4-(4-(azetidin-1-ylmethyl)-3-(4-fluorophenyl)-1H-pyrazol-1-yl)pyrimidin-2-ylamino)-4-methoxy-2-morpholinophenyl)acrylamide]
< 20	< 20	> 1000	< 20	< 20	< 20	C=CC(=O)Nc1cc(Nc2nccc(-n3cc(CN(C)C)c(-c4ccccc4)n3)n2)c(OC)cc1N(C)C [Compound 83, N-(2-(dimethylamino)-5-(4-(4-((dimethylamino)methyl)-3-phenyl-1H-pyrazol-1-yl)pyrimidin-2-ylamino)-4-methoxyphenyl)acrylamide]
< 20	< 20	> 1000	< 20	< 20	< 20	C=CC(=O)Nc1cc(Nc2nccc(-n3cc(CN4CCC4)c(-c4ccccc4)n3)n2)c(OC)cc1N1CCC1 [Compound 87, N-(2-(azetidin-1-yl)-5-(4-(4-(azetidin-1-ylmethyl)-3-phenyl-1H-pyrazol-1-yl)pyrimidin-2-ylamino)-4-methoxyphenyl)acrylamide]
< 20	< 20	201 to 1000	< 20	< 20	< 20	C=CC(=O)Nc1cc(Nc2nccc(-n3cc(CN(C)C)c(-c4cccs4)n3)n2)c(OC)cc1N1CCOCC1 [Compound 88, N-(5-(4-(4-((dimethylamino)methyl)-3-(thiophen-2-yl)-1H-pyrazol-1-yl)pyrimidin-2-ylamino)-4-methoxy-2-morpholinophenyl)acrylamide]
< 20	< 20	> 1000	< 20	< 20	< 20	C=CC(=O)Nc1cc(Nc2nccc(-n3cc(CN(C)C)c(-c4ccccc4)n3)n2)c(OC)cc1N(C)CCOC [Compound 94]
< 20	< 20	> 1000	< 20	< 20	< 20	C=CC(=O)Nc1cc(Nc2nccc(-n3cc(CN4CCC4)c(-c4ccccc4)n3)n2)c(OC)cc1N(C)CCOC [Compound 95, N-(5-(4-(4-(azetidin-1-ylmethyl)-3-phenyl-1H-pyrazol-1-yl)pyrimidin-2-ylamino)-4-methoxy-2-((2-methoxyethyl)(methyl)amino)phenyl)acrylamide]
20 to 200	< 20	> 1000	< 20	< 20	< 20	C=CC(=O)Nc1cc(Nc2nccc(-n3cc(CN(C)C)c(-c4ccccc4)n3)n2)c(OC)cc1N(C)C1COC1 [Compound 96, N-(5-(4-(4-((dimethylamino)methyl)-3-phenyl-1H-pyrazol-1-yl)pyrimidin-2-ylamino)-4-methoxy-2-(methyl(oxetan-3-yl)amino)phenyl)acrylamide]
20 to 200	< 20	> 1000	< 20	20 to 200	< 20	C=CC(=O)Nc1cc(Nc2nccc(-n3cc(CN4CCC4)c(-c4ccccc4)n3)n2)c(OC)cc1N(C)C1COC1 [Compound 97, N-(5-(4-(4-(azetidin-1-ylmethyl)-3-phenyl-1H-pyrazol-1-yl)pyrimidin-2-ylamino)-4-methoxy-2-(methyl(oxetan-3-yl)amino)phenyl)acrylamide]
< 20	< 20	20 to 200	< 20	< 20	< 20	C=CC(=O)Nc1cc(Nc2nccc(-n3cc(CN4CCC4)c(C4CC4)n3)n2)c(OC)cc1N(C)CCOC [Compound 107, N-(5-(4-(4-(azetidin-1-ylmethyl)-3-cyclopropyl-1H-pyrazol-1-yl)pyrimidin-2-ylamino)-4-methoxy-2-((2-methoxyethyl)(methyl)amino)phenyl)acrylamide]
< 20	< 20	20 to 200	< 20	< 20	< 20	C=CC(=O)Nc1cc(Nc2nccc(-n3cc(CN(C)C)c(C4CC4)n3)n2)c(OC)cc1N(C)C1COC1 [Compound 108, N-(5-(4-(3-cyclopropyl-4-((dimethylamino)methyl)-1H-pyrazol-1-yl)pyrimidin-2-ylamino)-4-methoxy-2-(methyl(oxetan-3-yl)amino)phenyl)acrylamide]
